According to PMC8233136, “Monomeric bile acids modulate the ATPase activity of detergent-solubilized ABCB4/MDR3” (Journal of Lipid Research, 2021):
“And” between values parts separate entries of the source, which are not always exact repeats. Equal entries are not always repeated.

Tests used:
[1] = target: T1, human ABCB4 (Homo sapiens, UniProt P21439); assay: ATP hydrolysis (malachite green) of detergent-solubilized, purified ABCB4: modulation of basal ATPase activity; type: biochemical; conditions: for Slope: Hill coefficient of allosteric sigmoidal fit of ATPase stimulation; for EC50: stimulation of basal ATPase activity, allosteric sigmoidal fit; for EC50 / Emax / Concentration at which maximal stimulation (plateau) of ATPase activity is reached / Max. Stimulation (%): 0-1,000 μM; for Emax / Max. Stimulation (%): basal ABCB4 ATPase activity set to 0%; for Concentration at which maximal stimulation (plateau) of ATPase activity is reached: basal ATPase activity
T1 construct: made in house; host or cells: Pichia pastoris (chromosomally integrated)
Method: (§1) The sodium salts of conjugated and unconjugated bile acids were dissolved in double-distilled water (ddH2O) or 100% DMSO at a concentration of 100 mM. While glyco-/tauro-/cholic acid (G/T/CA), glyco-/tauro-/chenodeoxycholic acid (G/T/CDCA) were dissolved in ddH2O water, glyco-/tauro-/deoxycholic acid (G/T/DCA), glyco/-tauro-/ursodeoxycholic acid (G/T/UDCA) as wells as Nor-UDCA and taurolithocholic acid (TLCA) were dissolved in DMSO. […] Modulation of the ATP hydrolysis by bile acid was determined in a concentration-dependent manner from 0 to 1,000 μM bile acids.
(§2) Analysis of the ATP activity of ABCB4 was performed by determining the amount of released, free inorganic orthophosphate by the malachite green assay ([53], [54], [60]) with minor modifications. The assay was performed in a total volume of 100 μl consisting of reaction buffer (50 mM Tris HCl, pH 7.4 at 37°C, 100 mM NaCl) supplemented with the 2.5 × cmc of FC-16 and 10 mM MgCl2. For determining the effect of DOPC, different bile acids or combinations thereof, 1–5 μL of the corresponding stock solutions (see lipid and bile acid preparation) were added. Five micrograms of ABCB4 or the BODIPY®-labeled sample was used in every reaction sample. Reaction was started by addition of ATP (5 mM f.c.) and performed for 40 min at 37°C. After 0 and 40 min, the reaction was stopped by transferring 25 μl of the reaction mixture into a 96-well plate containing 175 μl of 20 mM ice-cold sulfuric acid. Additionally, a phosphate standard with concentrations raging from 0 to 500 μM was used. Subsequently, inorganic phosphate was stained by adding 50 μl of dye (0.096% (w/v) malachite green, 1.48% (w/v) ammonium molybdate, 0.173% (w/v) Tween-20, and […] sulfuric acid). After incubation for 15 min, the absorption at 595 nm was measured (iMark™ Microplate Reader, BioRad), and the concentrations of phosphate release were calculated based on the slope of the line calculated based on the phosphate standards.
(§3) Basal ATPase activity of ABCB4 was set to 0% and the effect of supplements was calculated as % stimulation or % inhibition of the basal activity, respectively. For determination of kinetic parameters, bile acid concentration was varied and analyzed according to an allosteric sigmoidal fit (Equation 1):(1) v=vmax∗[S]^h/EC50h+[S]^h
Here, v describes the stimulation (%), vmax is the maximal stimulation (%), EC50 represents the half maximal effective concentration, S is the substrate concentration, and h is the Hill coefficient
In case of inhibition, the reduction (%) was plotted against the bile acid concentration and data were analyzed using Equation 2:(2) y=ymin+(ymax−ymin)/1+10^((logIC50−x)∗slope)
Here, ymax is the smallest, and ymin is the highest amount of inhibition, respectively, and x represents the concentration of the inhibitor. The IC50 value is defined as the concentration necessary to obtain 50% inhibition.
In case of both substrate stimulations, followed by substrate inhibition after maximal stimulation was reached, the modulation (%) was plotted against the substrate concertation and data was analyzed using by two fits: First part (stimulation) was as usually fitted using Equation 1. The second part (substrate inhibition) was analyzed by Equation 3 starting at the last point of the plateau:(3) y=ymin+[…]/(1+x/IC50)
Here, ymax is the highest value of the plateau after stimulation is reached, while ymin is the smallest value of y after maximal stimulation was reached.

[2] = target: T1, human ABCB4; assay: ATP hydrolysis (malachite green) of purified ABCB4 in the presence of 300 μM DOPC (with or without cholesterol); type: biochemical; conditions: for activity at 1000 µM / Relative ATPase activity in the presence of 300 μM DOPC: 1,000 μM bile acid/detergent/BAM + 300 μM DOPC; for activity at 1000 µM: read-out: Relative ATPase activity in the presence of 300 μM DOPC; for Decrease of DOPC-stimulated ATPase activity: 1,000 μM + 300 μM DOPC, relative to DOPC alone
Method: A sample of purified ABCB4 was incubated with 10-fold molar excess of BODIPY® FL maleimide (BODIPY® FL N-(2-aminoethyl)maleimide, Molecular Probes) at 22°C for 20 min. The reaction was quenched after 20 min by addition of a 20-fold molar excess of dithiothreitol (DTT) at 22°C for 10 min. Qualitative labeling efficiency was analyzed by visualizing a sample after SDS-PAGE by UV excitation.
DOPC was dissolved in chloroform, the solvent was evaporated, and the dried lipid sample was redissolved in ATP hydrolysis reaction buffer (50 mM Tris HCl, pH 7.4 at 37°C, 100 mM NaCl) at a concentration of 25.4 mM following the protocol of Geertsma et al. ([59]). Prior to the addition of the DOPC sample to the ATP hydrolysis assay, it was diluted to 5 mM, sonicated until a clear solution was obtained, and subsequently used at a final concentration of 300 μM. Since chloroform is not suitable for the later ATPase assay and cholesterol at higher concentration is insoluble in water and nearly all solvents, a molar mixture of cholesterol and DOPC was used. This mixture was obtained by adding the required molar ratio of cholesterol to always the same amount of dried DOPC. Afterward, the mixture was treated identical to DOPC only as described above resulting in a final concentration (f.c.) of 300 μM DOPC with 0–1,000 μM cholesterol in the ATPase assay.
as §1, §2, §3

[3] = Critical micelle concentration by Hoechst 33342 fluorescence in ATPase reaction buffer; type: physicochemical; conditions: 50 mM Tris-HCl pH 7.5, 100 mM NaCl, 37°C; no FC-16, MgCl2 or ATP
Method: CMC values were determined as described ([61]). […] 96-well plates suitable for fluorescence spectroscopy (Greiner Bio-One, FIA plate, black, flat bottom, medium binding) were used. […] CMCs of the bile acids were determined in ATPase reaction buffer (50 mM Tris-HCl, pH 7.5 (at 37°C), 100 mM NaCl) containing no FC-16, MgCl2, or ATP at 37°C using a Tecan M200 plate reader (Atlantic lab equipment). Bile acids were dissolved either in ddH2O or in 100% DMSO (as stated in “Lipid, cholesterol and bile acid preparation”) at a concentration of 100 mM. […] In case of hydrophobic bile acids, which were dissolved in DMSO, DMSO concentration was adapted to 1% in all wells. […] After background correction, fluorescence data were analyzed using Prism (version 8, GraphPad) with Equation 4:(4) F=Fmax∗(c[BA]−cmc)/(K0.5−cmc)+(c[BA]−cmc)
The measured fluorescence at each bile acid concentration (c[BA]) is represented by F, while Fmax is the maximal fluorescence, K0.5 is the midpoint of the function, and cmc is the critical micelle concentration of the bile acid.

[4] = vmax of allosteric sigmoidal fit (Equation 1), read-out: Max. Stimulation (%)
[5] = basal = 0%, negative = inhibition, duplicates
[6] = vmax of allosteric sigmoidal fit (Equation 1)

T1 sequence (P21439 1-1279 isoform P21439-2): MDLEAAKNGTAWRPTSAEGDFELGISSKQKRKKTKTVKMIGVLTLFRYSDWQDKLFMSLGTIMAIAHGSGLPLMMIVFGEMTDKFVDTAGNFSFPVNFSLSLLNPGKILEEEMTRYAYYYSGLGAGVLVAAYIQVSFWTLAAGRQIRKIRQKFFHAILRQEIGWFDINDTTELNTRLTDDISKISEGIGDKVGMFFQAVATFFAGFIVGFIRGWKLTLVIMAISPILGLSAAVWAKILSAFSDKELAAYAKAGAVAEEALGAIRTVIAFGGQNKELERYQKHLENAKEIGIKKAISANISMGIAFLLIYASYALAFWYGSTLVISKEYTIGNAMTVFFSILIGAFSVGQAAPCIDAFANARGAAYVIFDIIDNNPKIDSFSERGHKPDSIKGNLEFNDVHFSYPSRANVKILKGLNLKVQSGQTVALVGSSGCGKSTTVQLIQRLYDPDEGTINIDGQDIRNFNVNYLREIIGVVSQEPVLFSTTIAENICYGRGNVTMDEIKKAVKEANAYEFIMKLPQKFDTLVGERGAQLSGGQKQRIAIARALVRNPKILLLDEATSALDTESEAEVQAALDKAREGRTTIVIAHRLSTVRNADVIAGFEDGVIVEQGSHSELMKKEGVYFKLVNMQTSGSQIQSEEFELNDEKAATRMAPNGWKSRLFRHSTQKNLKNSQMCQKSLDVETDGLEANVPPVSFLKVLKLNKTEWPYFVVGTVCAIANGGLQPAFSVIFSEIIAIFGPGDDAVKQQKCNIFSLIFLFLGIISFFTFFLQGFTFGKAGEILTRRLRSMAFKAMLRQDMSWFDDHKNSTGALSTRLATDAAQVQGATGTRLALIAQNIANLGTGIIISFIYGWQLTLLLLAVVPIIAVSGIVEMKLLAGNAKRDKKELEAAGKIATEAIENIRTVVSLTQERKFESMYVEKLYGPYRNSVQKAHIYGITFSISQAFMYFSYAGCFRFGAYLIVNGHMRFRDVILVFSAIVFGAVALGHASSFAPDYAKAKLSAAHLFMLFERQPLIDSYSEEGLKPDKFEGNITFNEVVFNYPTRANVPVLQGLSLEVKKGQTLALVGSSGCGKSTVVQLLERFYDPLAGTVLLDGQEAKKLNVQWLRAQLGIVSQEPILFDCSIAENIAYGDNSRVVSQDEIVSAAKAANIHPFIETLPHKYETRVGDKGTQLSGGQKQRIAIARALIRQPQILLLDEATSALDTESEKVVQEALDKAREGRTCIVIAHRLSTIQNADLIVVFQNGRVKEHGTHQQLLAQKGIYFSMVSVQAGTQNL

SMILES	Slope [1]	EC50 ([1]; read-out: EC50) [µM]	Emax [1, 4] [%]	activity at 1000 µM ([2]; DOPC alone set to 100%) [%]	Critical micelle concentration (cmc) [3]	Concentration at which maximal stimulation (plateau) of ATPase activity is reached [1]	other results
C[C@H](CCC(=O)NCC(=O)O)[C@H]1CC[C@H]2[C@@H]3[C@@H](O)C[C@@H]4C[C@H](O)CC[C@]4(C)[C@H]3CC[C@]12C [GUDCA]	4.5 ± 1.0	393	185 ± 13	111 ± 3.1	1.6 mM and 1.6 ± 0.1 mM		
C[C@H](CC(=O)O)[C@H]1CC[C@H]2[C@@H]3[C@@H](O)C[C@@H]4C[C@H](O)CC[C@]4(C)[C@H]3CC[C@]12C [Nor-UDCA, 24-nor-ursodeoxycholic acid]	6.3 ± 1.3	476 ± 18.5	195 ± 10.8	373 ± 30	1.8 mM and 1.8 ± 0.1 mM		Increase of ATPase activity compared with UDCA ([1]; maximal stimulation, side chain shortened by one carbon atom): approximately 85%; ATPase activity in the presence of cholesterol:DOPC 1.5:1 ([2]; 1,000 μM BAM or Nor-UDCA added to cholesterol:DOPC (1.5:1, 300 μM DOPC), DOPC alone set to 100%): 380.7 ± 45.6%
C[C@H](CCC(=O)NCC(=O)O)[C@H]1CC[C@H]2[C@@H]3[C@H](O)C[C@@H]4C[C@H](O)CC[C@]4(C)[C@H]3CC[C@]12C [GCDCA]	3.9 ± 1.5	77.8 ± 7.5	223 ± 10	127 ± 2.8	2.6 mM and 2.6 ± 0.1 mM	approximately 150 μM	
CCCCCCCC/C=C\CCCCCCCC(=O)OC[C@H](COP(=O)([O-])OCC[N+](C)(C)C)OC(=O)CCCCCCC/C=C\CCCCCCCC [DOPC, 1,2-dioleoyl-sn-glycero-3-phosphocholine]							ATPase activity of nonlabeled protein ([2]; presence of 300 μM DOPC, 5 μg protein): 488.6 ± 44.5 nmol/min/mg; Specific ATPase activity of ABCB4 (Bodipy-labeled activity subtracted) ([2]; presence of 300 μM DOPC, basal 132.1 ± 13.0): 275.8 ± 24.8 nmol/min/mg; ATPase activity of ABCB4-Bodipy (Bodipy-labeled protein) ([2]; with 300 μM DOPC, non-ABCB4-mediated background): 212.8 ± 19.7 nmol/min/mg
C[C@H](CCC(=O)NCCC[N+](C)(C)CC(O)CS(=O)(=O)[O-])[C@H]1CC[C@H]2[C@@H]3[C@H](O)C[C@@H]4C[C@H](O)CC[C@]4(C)[C@H]3C[C@H](O)[C@]12C (stereo partly drawn) [CHAPSO, 3-[(3-cholamidopropyl)dimethylammonio]-2-hydroxy-1-propanesulfonate]	4.3 ± 2.5	125 ± 23.3				300 µM	Modulation of basal ATPase activity at 10 μM [1, 5]: –7.5 ± 8.6%; Max. Stimulation (%) [1, 6]: 145.4 ± 15.3%; Decrease of DOPC-stimulated ATPase activity [2]: approximately 50%; Relative ATPase activity in the presence of 300 μM DOPC ([2]; DOPC alone set to 100%): 48.7 ± 3.0%
C[C@H](CCC(=O)O)[C@H]1CC[C@H]2[C@@H]3CC[C@@H]4C[C@H](O)CC[C@]4(C)[C@H]3CC[C@]12C [LCA, lithocholic acid]					Precipitate ^a		
C[C@H](CCC(=O)NCCC[N+](C)(C)CCCS(=O)(=O)[O-])[C@H]1CC[C@H]2[C@@H]3[C@H](O)C[C@@H]4C[C@H](O)CC[C@]4(C)[C@H]3C[C@H](O)[C@]12C [CHAPS, 3-[(3-cholamidopropyl)dimethylammonio]-1-propanesulfonate]	3.7 ± 2.1	151 ± 20.8				300 µM	Modulation of basal ATPase activity at 10 μM [1, 5]: –7.1 ± 3.6%; Modulation of basal ATPase activity at 50 μM ([1]; 50 μM, basal = 0%, negative = inhibition, duplicates): –9.9 ± 5.0%; Max. Stimulation (%) [1, 6]: 142.6 ± 11.5%; Decrease of DOPC-stimulated ATPase activity [2]: approximately 50%; Relative ATPase activity in the presence of 300 μM DOPC ([2]; DOPC alone set to 100%): 52.6 ± 6.5%
C[C@H](CCC(=O)NCCS(=O)(=O)O)[C@H]1CC[C@H]2[C@@H]3[C@H](O)C[C@@H]4C[C@H](O)CC[C@]4(C)[C@H]3C[C@H](O)[C@]12C [TCA, taurocholic acid]	2.6 ± 0.5				3.5 mM and 3.5 ± 0.1 mM	approximately 400 μM	EC50 ([1]; EC50 (μM)): 114 µM; Emax ([1]; read-out: Max. Stimulation (%), vmax of allosteric sigmoidal fit (Equation 1)): 539 ± 24%
CC(C)CCC[C@@H](C)[C@H]1CC[C@H]2[C@@H]3CC=C4C[C@@H](O)CC[C@]4(C)[C@H]3CC[C@]12C [Cholesterol]							ATPase activity at cholesterol:DOPC ratio 1.5:1 ([2]; 300 μM DOPC, DOPC alone set to 100%): 190.4 ± 9.4%; Emax ([2]; 300 μM DOPC, DOPC alone set to 100%, cholesterol:DOPC ratios 1-2, read-out: Maximal stimulation of ATPase activity by cholesterol (vmax)): 204 ± 5.9%; ATPase activity at cholesterol:DOPC molar ratio 0.04 ([2]; 300 μM DOPC, DOPC alone set to 100%, considered no stimulation): 119%; EC50 ([2]; cholesterol mixed with 300 μM DOPC, molar ratios 0-3.3 (cholesterol to DOPC)): 210 µM; Slope ([2]; cholesterol mixed with 300 μM DOPC, allosteric sigmoidal fit): 7.8 ± 2.2; Max. Stimulation (%) ([2]; cholesterol mixed with 300 μM DOPC, stimulation in addition to DOPC stimulation): 103.5 ± 5.9%
